From patent publication US8198307B2, “Imidazole derivatives having aryl piperidine substituent, method for preparation thereof and pharmaceutical compositions containing same” (Korea Research Institute of Chemical Technology, priority 2007, dated 2012)
pIC50: −log10 of the molar value.

target: T1, MCH R1 (melanine-concentrating hormone receptor-1) (Homo sapiens, UniProt Q99705); assay: Inhibitory effects on MCH R1 binding (Eu-MCH time-resolved fluorescence binding assay); conditions: concentration inhibiting the binding of MCH (Eu-MCH, 2 nM) to MCH R1 by 50% in vitro; TRF readout; test range 1 nM to 10 μM; read-out: IC50
T1 construct: purchased Euroscreen, Gosselies, Belgium
T1 sequence (Q99705 whole entry, species assumed): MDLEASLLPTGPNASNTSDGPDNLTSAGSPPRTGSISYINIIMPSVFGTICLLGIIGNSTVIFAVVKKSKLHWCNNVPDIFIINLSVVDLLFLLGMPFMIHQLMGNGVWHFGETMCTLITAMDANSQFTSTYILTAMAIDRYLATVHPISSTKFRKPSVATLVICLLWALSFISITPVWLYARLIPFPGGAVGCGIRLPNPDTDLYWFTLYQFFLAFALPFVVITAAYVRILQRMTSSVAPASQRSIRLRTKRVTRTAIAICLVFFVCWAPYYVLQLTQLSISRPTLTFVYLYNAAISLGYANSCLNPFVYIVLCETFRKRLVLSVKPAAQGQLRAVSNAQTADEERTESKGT
Experimental: First, MCH R1 (melanine-concentrating hormone receptor-1; Euroscreen, Gosselies, Belgium), 1 μM Europium-labeled melanine-concentrating hormone (Eu-MCH, PerkinElmer, Turku, Finland) and 1 mM melanine-concentrating hormone (MCH, #070-47, Phoenix, Belmont Calif., USA) were kept at 4° C. for ready use. 1 μM Eu-MCH and 1 mM MCH were diluted with an experimental solution (25 mM HEPES pH 7.4, 5 mM MgCl2, 1 mM CaCl2 and 0.5% (w/w) BSA) to 8 nM (final reaction concentration: 2 nM) and 2 μM (final reaction concentration: 0.5 μM), respectively. The compounds prepared in the Examples (“Test compounds”) were dissolved in the experimental solution in concentration of 4 nM to 40 μM (final reaction concentration: 1 nM to 10 μM). MCH R1 (200 assays/vial) was homogeneously dispersed in the experimental solution.
Then, 100 μl/well of the following reaction mixture was added to the wells of a microplate (Multiwell 96 well filter plates PN5020, Pall Co., Ann Arbor, Mich., USA) equipped with a filter paper, with an 8-channel pipette (multi 8-channel, Eppendorf, Hamburg, Germany). Specifically, to the wells of a non-specific binding control group, 25 μl of Eu-MCH, 50 μl of MCH R1 and 25 μl of MCH were added. Further, 25 μl of the experimental solution supplemented with 10% (w/w) of DMSO, 25 μl of Eu-MCH and 50 μl of MCH R1 were added to the wells of a total binding control group, while 25 μl of the test compounds, 25 μl Eu-MCH and 50 μl of MCH R1 were added to the wells of an experimental group. Subsequently, the microplate was shaken gently for 15 seconds and kept at room temperature for 90 minutes to allow the reaction to take place. Then, the plate was washed with a microplate washer (EMBLA, Molecular Devices) by washing three times with 300 μl of a washing solution (25 mM HEPES pH 7.4, 5 mM MgCl2, 1 mM CaCl2) to remove the residual unreacted Eu-MCH. Moisture was removed from the bottom of the wells and 150 μl of dissociation solution (DELFIA Enhancement solution, PerkinElmer, Turku, Finland) was added to each well, followed by keeping the plate at room temperature for 2 to 4 hours. Subsequently, time-resolved fluorescence (TRF) values were measured with a multilabel counter (Victor2, PerkinElmer, Turku, Finland) (emission wave length: 615 nm, excitation wave length: 340 nm). The inhibition rate based on the time-resolved fluorescence data was calculated using the following Equation (I). Inhibition rate of time-resolved fluorescence (%)=[(Average TRF value of the total binding group−Time-resolved fluorescence value of the test compound)/(Average TRF value of the total binding group−Average TRF value of the non-specific binding group)]×100 (I)

SMILES	pIC50
CC(=O)Nc1cccc(C2CCN(CCn3c(-c4ccc(Cl)cc4)nc4ccccc43)CC2)c1 [Example 2, 2-(4-chlorophenyl)-1-{2-[4-(3-acetylaminophenyl)piperidin-1-yl]ethyl}-1H-benzimidazole]	5.22
CC(=O)Nc1cccc(C2CCN(CCCCn3c(-c4ccc(Cl)cc4)nc4ccccc43)CC2)c1 [Example 6, 2-(4-chlorophenyl)-1-{4-[4-(3-acetylaminophenyl)piperidin-1-yl]butyl}-1H-benzimidazole]	9.00
CC(=O)Nc1cccc(C2CCN(CCCCCn3c(-c4ccc(Cl)cc4)nc4ccccc43)CC2)c1 [Example 8, 2-(4-chlorophenyl)-1-{5-[4-(3-acetylaminophenyl)piperidin-1-yl]pentyl}-1H-benzimidazole]	7.49
COc1cccc(-c2nc3ccccc3n2CCCN2CCC(c3cccc(NC(C)=O)c3)CC2)c1 [Example 18, 2-(3-methoxyphenyl)-1-{3-[4-(3-acetylaminophenyl)piperidin-1-yl]propyl}-1H-benzimidazole]	8.15
COc1ccc(-c2nc3ccccc3n2CCCN2CCC(c3cccc(NC(C)=O)c3)CC2)cc1 [Example 19, 2-(4-methoxyphenyl)-1-{3-[4-(3-acetylaminophenyl)piperidin-1-yl]propyl}-1H-benzimidazole]	8.05
CC(=O)Nc1cccc(C2CCN(CCCn3c(-c4ccc(C(C)C)cc4)nc4ccccc43)CC2)c1 [Example 20, 2-(4-isopropylphenyl)-1-{3-[4-(3-acetylaminophenyl)piperidin-1-yl]propyl}-1H-benzimidazole]	7.72
CC(=O)Nc1cccc(C2CCN(CCCn3c(-c4ccccc4)nc4cc(C)c(C)cc43)CC2)c1 [Example 21, 2-phenyl-1-{3-[4-(3-acetylaminophenyl)piperidin-1-yl]propyl}-5,6-dimethyl-1H-benzimidazole]	8.30
CC(=O)Nc1cccc(C2CCN(CCCn3c(-c4ccc(Cl)cc4)nc4cc(C)c(C)cc43)CC2)c1 [Example 22, 2-(4-chlorophenyl)-1-{3-[4-(3-acetylaminophenyl)piperidin-1-yl]propyl}-5,6-dimethyl-1H-benzimidazole]	6.70
CC(=O)Nc1cccc(C2CCN(CCCn3c(-c4ccccc4)nc4ccc(C)cc43)CC2)c1 [Example 23, 2-phenyl-1-{3-[4-(3-acetylaminophenyl)piperidin-1-yl]propyl}-6-methyl-1H-benzimidazole]	7.80
CC(=O)Nc1cccc(C2CCN(CCCn3c(-c4ccc(Cl)cc4)nc4ccc(C)cc43)CC2)c1 [Example 24, 2-(4-chlorophenyl)-1-{3-[4-(3-acetylaminophenyl)piperidin-1-yl]propyl}-6-methyl-1H-benzimidazole]	8.00
CC(=O)Nc1cccc(C2CCN(CCCn3c(-c4ccc(Cl)cc4)nc4ccc(Cl)cc43)CC2)c1 [Example 25, 2-(4-chlorophenyl)-1-{3-[4-(3-acetylaminophenyl)piperidin-1-yl]propyl}-6-chloro-1H-benzimidazole]	7.89
CC(=O)Nc1cccc(C2CCN(CCCn3c(-c4ccccc4)nc4ccc(F)cc43)CC2)c1 [Example 26, 2-phenyl-1-{3-[4-(3-acetylaminophenyl)piperidin-1-yl]propyl}-6-fluoro-1H-benzimidazole]	8.15
COc1ccc2nc(-c3ccccc3)n(CCCN3CCC(c4cccc(NC(C)=O)c4)CC3)c2c1 [Example 27, 2-phenyl-1-{3-[4-(3-acetylaminophenyl)piperidin-1-yl]propyl}-6-methoxy-1H-benzimidazole]	7.96
COc1ccc2nc(-c3ccc(Cl)cc3)n(CCCN3CCC(c4cccc(NC(C)=O)c4)CC3)c2c1 [Example 28, 2-(4-chlorophenyl)-1-{3-[4-(3-acetylaminophenyl)piperidin-1-yl]propyl}-6-methoxy-1H-benzimidazole]	7.26
CC(=O)Nc1cccc(C2CCN(CCCn3c(-c4ccc(F)cc4)nc4ccc(Cl)cc43)CC2)c1 [Example 30, 2-(4-fluorophenyl)-1-{3-[4-(3-acetylaminophenyl)piperidin-1-yl]propyl}-6-chloro-1H-benzimidazole]	7.89

The next lines start with the values.

pIC50	SMILES
< 5.00	CC(=O)Nc1cccc(C2CCN(CCn3c(-c4ccccc4)nc4ccccc43)CC2)c1 [Example 1, 2-phenyl-1-{2-[4-(3-acetylaminophenyl)piperidin-1-yl]ethyl}-1H-benzimidazole]
8.70	CC(=O)Nc1cccc(C2CCN(CCCn3c(-c4ccccc4)nc4ccccc43)CC2)c1 [Example 3, 2-phenyl-1-{3-[4-(3-acetylaminophenyl)piperidin-1-yl]propyl}-1H-benzimidazole]
9.00	CC(=O)Nc1cccc(C2CCN(CCCn3c(-c4ccc(Cl)cc4)nc4ccccc43)CC2)c1 [Example 4, 2-(4-chlorophenyl)-1-{3-[4-(3-acetylaminophenyl)piperidin-1-yl]propyl}-1H-benzimidazole]
7.54	CC(=O)Nc1cccc(C2CCN(CCCCn3c(-c4ccccc4)nc4ccccc43)CC2)c1 [Example 5, 2-phenyl-1-{4-[4-(3-acetylaminophenyl)piperidin-1-yl]butyl}-1H-benzimidazole]
7.13	CC(=O)Nc1cccc(C2CCN(CCCCCn3c(-c4ccccc4)nc4ccccc43)CC2)c1 [Example 7, 2-phenyl-1-{5-[4-(3-acetylaminophenyl)piperidin-1-yl]pentyl}-1H-benzimidazole]
8.00	CC(=O)Nc1cccc(C2CCN(CCCn3c(-c4ccccc4Cl)nc4ccccc43)CC2)c1 [Example 9, 2-(2-chlorophenyl)-1-{3-[4-(3-acetylaminophenyl)piperidin-1-yl]propyl}-1H-benzimidazole]
8.30	CC(=O)Nc1cccc(C2CCN(CCCn3c(-c4cccc(Cl)c4)nc4ccccc43)CC2)c1 [Example 10, 2-(3-chlorophenyl)-1-{3-[4-(3-acetylaminophenyl)piperidin-1-yl]propyl}-1H-benzimidazole]
8.30	CC(=O)Nc1cccc(C2CCN(CCCn3c(-c4ccc(Br)cc4)nc4ccccc43)CC2)c1 [Example 11, 2-(4-bromophenyl)-1-{3-[4-(3-acetylaminophenyl)piperidin-1-yl]propyl}-1H-benzimidazole]
7.62	CC(=O)Nc1cccc(C2CCN(CCCn3c(-c4ccc(Cl)c(Cl)c4)nc4ccccc43)CC2)c1 [Example 12, 2-(3,4-dichlorophenyl)-1-{3-[4-(3-acetylaminophenyl)piperidin-1-yl]propyl}-1H-benzimidazole]
9.00	CC(=O)Nc1cccc(C2CCN(CCCn3c(-c4cccc(Br)c4)nc4ccccc43)CC2)c1 [Example 13, 2-(3-bromophenyl)-1-{3-[4-(3-acetylaminophenyl)piperidin-1-yl]propyl}-1H-benzimidazole]
< 5.00	CC(=O)Nc1cccc(C2CCN(CCCn3c(-c4ccccc4I)nc4ccccc43)CC2)c1 [Example 14, 2-(2-iodophenyl)-1-{3-[4-(3-acetylaminophenyl)piperidin-1-yl]propyl}-1H-benzimidazole]
8.00	CC(=O)Nc1cccc(C2CCN(CCCn3c(-c4ccccc4F)nc4ccccc43)CC2)c1 [Example 15, 2-(2-fluorophenyl)-1-{3-[4-(3-acetylaminophenyl)piperidin-1-yl]propyl}-1H-benzimidazole]
8.52	CC(=O)Nc1cccc(C2CCN(CCCn3c(-c4ccc(Cl)cc4Cl)nc4ccccc43)CC2)c1 [Example 16, 2-(2,4-dichlorophenyl)-1-{3-[4-(3-acetylaminophenyl)piperidin-1-yl]propyl}-1H-benzimidazole]
6.13	COc1ccccc1-c1nc2ccccc2n1CCCN1CCC(c2cccc(NC(C)=O)c2)CC1 [Example 17, 2-(2-methoxyphenyl)-1-{3-[4-(3-acetylaminophenyl)piperidin-1-yl]propyl}-1H-benzimidazole]
8.00	CC(=O)Nc1cccc(C2CCN(CCCn3c(-c4ccccc4)nc4ccc(Cl)cc43)CC2)c1 [Example 29, 2-phenyl-1-{3-[4-(3-acetylaminophenyl)piperidin-1-yl]propyl}-6-chloro-1H-benzimidazole]
